Measurements: patent US9278094B2, “Treatments for depression and other diseases with a low dose agent” (PharmoRx Therapeutics, Inc., priority 2013, dated 2016)

Columns and labels:
patients with depression = experiment: Patient responses to low dose naltrexone treatment of depression (case reports)
Protocol: Patient #1: A middle aged person suffered severe depression with recurrent major depressive episodes. […] The former pharmacologic regimen was otherwise unchanged.
Patient #3: A patient presented with treatment-resistant depression. The patient was also diagnosed with Attention Deficit Disorder. The patient initially was treated with s-citalopram 15 mg, augmented by dextro-amphetamine.
Patient #4: A patient weighing approximately 60 kg had suffered severe unremitting depression. […] Subsequently, the patient was prescribed 5 mg naltrexone daily with continuation of s-citalopram.
They were being treated with buproprion XL 300 mg, augmented with melatonin 3 mg and N-acetyl-cysteine 1200 mg.
Patient #6: A patient with multiple major depression episodes, anhedonia, apathy, low energy and poor sleep was being treated with duloxetine 60 mg and buproprion 75 mg, and mirtazpine 15 mg. […] They also called and e-mailed multiple times per day. They were being treated with Effexor XR 75 mg QHS, Xanax 0.5 mg, and Clonazepam 1.5 mg.
The patient was then co-administered 1 mg daily of naltrexone with pramipexole.
Patient #9: A middle-age person suffered severe depression with recurrent major depressive episodes and social anxiety. They were being treated with Adderall 10 mg, levothyroxine 50 mcg, and propranol 10 mg.

[1] = system: patients with breakthrough depression (BTD); experiment: Clinical testing of low dose naltrexone treatment of depression (double-blind, placebo-controlled); format: in vivo, human
[2] = biological target: C-terminal pentapeptide of the scaffolding protein filamin A (Homo sapiens, UniProt P21333); details: Wang, Frankfurt, & Burns, 2008; cited from earlier work
[3] = low dose naltrexone (e.g. less than 10 mg); cited from earlier work
[4] = system: Restless Leg Syndrome (RLS); details: RLS treated with D2/D3 agonists pramipexole or ropinirole; Philips Respironics Actigraphy; see U.S. Ser. No. 12/603,235; cited from earlier work

Chain of C-terminal pentapeptide of the scaffolding protein filamin A (P21333 whole entry): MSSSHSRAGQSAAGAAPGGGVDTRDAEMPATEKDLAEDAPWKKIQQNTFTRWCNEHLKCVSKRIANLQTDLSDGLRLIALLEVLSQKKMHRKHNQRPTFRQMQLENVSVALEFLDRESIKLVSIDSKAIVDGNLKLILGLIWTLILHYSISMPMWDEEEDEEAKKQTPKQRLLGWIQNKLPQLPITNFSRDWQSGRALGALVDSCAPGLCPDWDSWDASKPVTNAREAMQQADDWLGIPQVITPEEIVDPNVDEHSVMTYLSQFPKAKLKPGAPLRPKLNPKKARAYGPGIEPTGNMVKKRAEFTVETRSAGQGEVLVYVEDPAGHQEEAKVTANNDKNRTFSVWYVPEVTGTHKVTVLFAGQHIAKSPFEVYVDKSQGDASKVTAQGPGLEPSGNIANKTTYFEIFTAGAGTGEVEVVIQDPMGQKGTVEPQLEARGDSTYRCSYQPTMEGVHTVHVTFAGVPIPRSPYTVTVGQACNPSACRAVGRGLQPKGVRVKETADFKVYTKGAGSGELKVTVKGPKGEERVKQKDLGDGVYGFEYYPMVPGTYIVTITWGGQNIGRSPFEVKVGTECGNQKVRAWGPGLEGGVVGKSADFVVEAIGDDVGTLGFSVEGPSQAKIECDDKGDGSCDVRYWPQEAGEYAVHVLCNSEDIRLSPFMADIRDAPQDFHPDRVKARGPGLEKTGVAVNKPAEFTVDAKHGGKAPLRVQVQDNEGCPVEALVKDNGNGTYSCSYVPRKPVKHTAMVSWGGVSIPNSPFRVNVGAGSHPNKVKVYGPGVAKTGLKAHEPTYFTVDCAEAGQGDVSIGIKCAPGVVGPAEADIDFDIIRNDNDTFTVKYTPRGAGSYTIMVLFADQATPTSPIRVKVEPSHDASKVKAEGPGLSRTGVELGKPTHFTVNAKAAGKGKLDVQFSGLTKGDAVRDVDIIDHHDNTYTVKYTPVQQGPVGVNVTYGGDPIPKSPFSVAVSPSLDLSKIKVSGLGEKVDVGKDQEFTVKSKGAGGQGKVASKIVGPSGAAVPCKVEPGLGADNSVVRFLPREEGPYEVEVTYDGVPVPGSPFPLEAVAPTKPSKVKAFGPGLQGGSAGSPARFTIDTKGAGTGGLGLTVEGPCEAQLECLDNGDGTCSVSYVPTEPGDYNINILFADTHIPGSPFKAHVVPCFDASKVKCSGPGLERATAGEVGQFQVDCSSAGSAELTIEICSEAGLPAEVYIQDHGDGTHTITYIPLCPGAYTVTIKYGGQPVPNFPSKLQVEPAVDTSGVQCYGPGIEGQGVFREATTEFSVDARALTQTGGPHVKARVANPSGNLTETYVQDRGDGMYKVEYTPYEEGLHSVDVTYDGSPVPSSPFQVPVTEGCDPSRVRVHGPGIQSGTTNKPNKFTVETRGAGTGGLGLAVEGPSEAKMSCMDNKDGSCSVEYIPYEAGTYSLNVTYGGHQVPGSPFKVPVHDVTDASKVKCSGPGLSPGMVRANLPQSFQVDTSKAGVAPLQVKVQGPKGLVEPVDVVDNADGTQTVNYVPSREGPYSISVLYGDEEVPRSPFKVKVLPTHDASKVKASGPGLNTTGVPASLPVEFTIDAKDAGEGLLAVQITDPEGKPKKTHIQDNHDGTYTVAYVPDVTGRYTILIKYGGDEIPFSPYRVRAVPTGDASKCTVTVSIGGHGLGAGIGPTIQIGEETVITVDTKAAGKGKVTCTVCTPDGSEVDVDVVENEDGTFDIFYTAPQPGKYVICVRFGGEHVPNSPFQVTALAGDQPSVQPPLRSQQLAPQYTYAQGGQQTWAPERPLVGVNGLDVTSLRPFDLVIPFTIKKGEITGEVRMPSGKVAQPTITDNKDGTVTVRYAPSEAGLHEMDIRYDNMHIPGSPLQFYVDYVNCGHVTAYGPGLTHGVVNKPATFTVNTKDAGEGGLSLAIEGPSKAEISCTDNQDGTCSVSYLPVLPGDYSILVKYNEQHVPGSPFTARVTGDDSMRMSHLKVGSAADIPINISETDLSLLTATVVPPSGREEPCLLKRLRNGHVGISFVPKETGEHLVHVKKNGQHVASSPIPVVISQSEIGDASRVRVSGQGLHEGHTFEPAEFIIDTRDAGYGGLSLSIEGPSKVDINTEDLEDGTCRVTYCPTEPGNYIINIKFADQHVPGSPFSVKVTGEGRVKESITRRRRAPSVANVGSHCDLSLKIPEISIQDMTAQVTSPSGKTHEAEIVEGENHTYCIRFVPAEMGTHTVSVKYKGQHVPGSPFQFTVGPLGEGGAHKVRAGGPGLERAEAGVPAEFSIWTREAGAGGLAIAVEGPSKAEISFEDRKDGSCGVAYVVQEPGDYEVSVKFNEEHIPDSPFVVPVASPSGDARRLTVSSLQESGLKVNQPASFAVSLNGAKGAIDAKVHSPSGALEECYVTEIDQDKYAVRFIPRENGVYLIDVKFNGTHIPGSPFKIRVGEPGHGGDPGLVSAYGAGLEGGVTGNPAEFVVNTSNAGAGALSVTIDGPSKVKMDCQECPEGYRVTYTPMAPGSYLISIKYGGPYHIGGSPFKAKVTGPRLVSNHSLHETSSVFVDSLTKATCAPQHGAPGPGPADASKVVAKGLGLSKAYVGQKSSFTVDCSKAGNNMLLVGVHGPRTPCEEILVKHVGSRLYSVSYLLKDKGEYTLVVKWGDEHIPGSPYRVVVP

## CCCN[C@H]1CCc2nc(N)sc2C1 [pramipexole, (S)—N^6-propyl-4,5,6,7-tetrahydro-1,3-benzothiazole-2,6-diamine]
Patients with depression; Patient #8, pramipexole without naltrexone
  benefit in depression before naltrexone: limited benefit

## O=C1CCc2ccc(OCCCCN3CCN(c4cccc(Cl)c4Cl)CC3)cc2N1 [aripiprazole, 7-{4-[4-(2,3-Dichlorophenyl)piperazin-1-yl]butoxy}-3,4-dihydroquinolin-2(1H)-one]
Patients with depression; Patient #1, in the past, before naltrexone
  earlier response of depression: transiently responded

## O=C1CC[C@@]2(O)[C@H]3Cc4ccc(O)c5c4[C@@]2(CCN3CC2CC2)[C@H]1O5 [naltrexone, 17-(cyclopropylmethyl)-4,5α-epoxy-3,14-dihydroxymorphinan-6-one]
Patients with depression; Patient #1, about 1 mg naltrexone daily
  time to remission after initiating: About one
Patients with depression; Patient #1, adjunctive naltrexone 1 mg daily, continuing to present
  duration of maintained remission: more than 6 months
Patients with depression; Patient #2
  duration of maintained response: over 2 years
  time to response: ≤ 2 weeks
Patients with depression; Patient #3, Attention Deficit Disorder, naltrexone 1 mg added, within days
  attention: much improved
Patients with depression; Patient #3, naltrexone 1 mg
  adverse effects reported: no adverse effects
Patients with depression; Patient #3, naltrexone 1 mg added to s-citalopram 15 mg and dextro-amphetamine, within days
  mood response: marked lifting of mood
Patients with depression; Patient #4
  duration of observation remaining euthymic: more than two
Patients with depression; Patient #5
  time to remission: two
Patients with depression; Patient #5, and continuing
  duration of improvement: five
Patients with depression; Patient #6
  time to response: one
Patients with depression; Patient #7
  time to response: three
[1]; 1 mg bid, on antidepressant regimen containing a pro-dopaminergic agent, versus placebo, three weeks
  rates of response on all outcome measures (HAM-D-17, HAM-D-28, MADRS-10, MADRS-15, CGI-S, CGI-I): higher rates of response
[1]; 1 mg bid, patients on active drug followed six weeks
  persistence of response: continued during the entire six week trial period
[1]; compared to placebo controls
  Quality of Life, Enjoyment, and Satisfaction Questionnaire (Q-LES-Q) score: greater improvement
  Sheehan Disability Scale (SDS) score: greater improvement
[2]
  Kd: < 5 pM
[3]
  effects of opioid agonists: enhance the effects of opioid agonists
[4]
  control of periodic limb movements of sleep: equivalent control of limb movements at one-half the prior dose of D2/D3 agonists
